Measured values as given in patent US7087717B2, “Sp110, a polypeptide component of the nuclear body” (The General Hospital Corporation, priority 2000, dated 2006).

Key:
NB4 cells = assay: Sp110 mRNA level by RNA blot after cellular differentiation; type: cell-based, human; settings: 1 μM, 48 hours
Method: To investigate the expression of Sp110 in cells of the monocyte/granulocyte lineage, RNA was prepared from the myeloid precursor cell lines HL60 and NB4 (HL60 cells are available from the American Type Culture Collection, Manassas, Va.). […] RNA was fractionated in formaldehyde-agarose gels (5 μg/lane) and equal loading of RNA was confirmed by staining 28S and 18S ribosomal RNA with ethidium bromide. […] Membranes were washed and analyzed by autoradiography. […] To examine the effect of cellular differentiation on Sp110 mRNA, NB4 cells were treated for 48 hours with all trans retinoic acid (ATRA) (1 μM).

[1] = system: human coronary artery smooth muscle cells (hCASMCs) and human umbilical vein endothelial cells (HUVECs); assay: Sp110 mRNA expression after cytokine exposure; type: cell-based; settings: 200 u/ml
Method: Sp110 expression was also examined in human coronary artery smooth muscle cells (hCASMCs) and human umbilical vein endothelial, cells (HUVECs) following exposure to IFNα (200 u/ml). Expression of Sp110 mRNA was induced within 4 hours and reached a maximum level between 8 and 24 hours.

Row | Compound | level of Sp110 mRNA (NB4 cells) | time to induction of Sp110 mRNA expression [1]
1 | CC1=C(/C=C/C(C)=C/C=C/C(C)=C/C(=O)O)C(C)(C)CCC1 [ATRA, all trans retinoic acid] | increased | –
2 | IFNα | – | ≤ 4 h
